Values quoted from earlier work as cited in PMC7878667, “The Kinase Specificity of Protein Kinase Inhibitor Peptide” (Frontiers in Pharmacology, 2021).

Assays:
PKBα = conditions: ref Murray, 2008
Text: (§1) Despite the additional targets of PKI identified in our study, PKI seems more specific than the other commonly used PKA inhibitors, H89 and KT 5720 ([Murray, 2008]). This may be due to their different mechanisms of action. […] The off-target effects of these reagents have partial overlap ([Murray, 2008]).

ROCK2 = conditions: ref Murray, 2008
Text: as §1

PKA catalytic subunit = conditions: ref Murray, 2008
Text: as §1

PDK1 = conditions: ref Murray, 2008
Text: as §1

PKC = conditions: ref Day et al., 1989; Smith et al., 1990
Text: In principle, this could be due to PKI interfering with 1) the protease reaction, 2) the fluorescence detection, or 3) the FRET response. […] Second, the forms of PKC used are different: we used purified human recombinant PKC isoforms expressed in insect ce ...

Row | Compound | effect on PKBα (PKBα) | effect on ROCK2 (ROCK2) | mechanism of PKA inhibition (PKA catalytic subunit) | effect on PDK1 activity (PDK1) | influence on PKC (PKC)
1 | O=S(=O)(NCCNC/C=C/c1ccc(Br)cc1)c1cccc2cnccc12 [H89] | inhibited | inhibits ROCK2 potently | competitively inhibits ATP binding on the PKA catalytic subunit |  | 
2 | CCCCCCOC(=O)[C@]1(O)C[C@@H]2O[C@@]1(C)n1c3ccccc3c3c4c(c5c6ccccc6n2c5c31)C(=O)NC4 [KT 5720] | inhibited |  | competitively inhibits ATP binding on the PKA catalytic subunit | inhibited | 
3 | IAAGRTGRRQAIHDILVAA [PKI-tide] |  |  |  |  | did not find significant influence
